Laboratory results taken from the supplement of paper PMC10627819.

How the values were obtained:
B. subtilis 168 [1] = assay: Bliss interaction score (quartile over a dose matrix) (fitness difference); higher = more antagonism (negative = synergy)
Summary of the method: (§1)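 Fitness here means normalised growth, inferred for single drugs from the combination data. Growth was OD595 at entry into stationary phase, divided by the plate's robust no-drug mean and capped at 1. The Bliss score is observed minus expected fitness, with the expectation being the product, and its quartiles span technical, biological and donor/recipient replicates.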

S. aureus DSM 20231 = assay: as above
Summary of the method: as §1

S. aureus Newman = assay: as above
Summary of the method: as §1

S. pneumoniae D39V [2] = assay: as above
Summary of the method: as §1

B. subtilis 168 [3] = assay: fitness (endpoint OD595 vs no drug) (fraction); higher = more growth
Summary of the method: (§2)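 Fitness was defined as the optical density at the transition into stationary phase relative to the robust mean of no-drug control wells. Values were capped at 1. Cultures were started at OD595 0.01 in 384-well plates (30 µl, or 55 µl for S. pneumoniae) in TSB, LB Lennox or CY at 37 °C. OD595 was recorded every 30 min over 14 h, with the first reading subtracted as background.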

S. pneumoniae D39V [4] = assay: as above
Summary of the method: as §2
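Wherever Bliss interaction score (quartile over a dose matrix) is given: first quartile when negative (synergy) and third quartile when positive (antagonism).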

C[C@H]1c2cccc(O)c2C(=O)C2=C(O)[C@]3(O)C(=O)C(C(N)=O)=C(O)[C@@H](N(C)C)[C@@H]3[C@@H](O)[C@@H]21 [Doxycycline] + CN[C@@H]1[C@H](O)[C@H](NC)[C@H]2O[C@@]3(O)C(=O)C[C@@H](C)O[C@H]3O[C@@H]2[C@H]1O [Spectinomycin]
Settings	Bliss interaction score
B. subtilis 168 [1]	-0.0339
S. aureus DSM 20231	-0.0389
S. aureus Newman	-0.0405
S. pneumoniae D39V [2]	-0.0375

fitness
Settings	partner 2 µg/mL	partner 4 µg/mL	partner 8 µg/mL	partner 16 µg/mL
B. subtilis 168 [3], first compound 0.02 µg/mL	0.909	0.881	0.835	–
B. subtilis 168 [3], first compound 0.04 µg/mL	0.824	0.828	0.712	–
B. subtilis 168 [3], first compound 0.08 µg/mL	0.546	–	0.402	–
S. pneumoniae D39V [4], first compound 0.0155 µg/mL	–	0.91	0.869	0.805
S. pneumoniae D39V [4], first compound 0.031 µg/mL	–	0.879	0.822	–
S. pneumoniae D39V [4], first compound 0.062 µg/mL	–	0.783	0.758	–

fitness, S. pneumoniae D39V [4], one replicate
Settings	first compound 0.003875 µg/mL	first compound 0.00775 µg/mL	first compound 0.031 µg/mL	first compound 0.062 µg/mL
partner 4 µg/mL	0.971	0.908	–	–
partner 8 µg/mL	0.949	0.925	–	–
partner 16 µg/mL	0.804	0.834	0.768	0.673

C[C@H]1c2cccc(O)c2C(=O)C2=C(O)[C@]3(O)C(=O)C(C(N)=O)=C(O)[C@@H](N(C)C)[C@@H]3[C@@H](O)[C@@H]21 [Doxycycline] + C[n+]1ccc(-c2cc[n+](C)cc2)cc1 [Paraquat]
Settings	Bliss interaction score
B. subtilis 168 [1]	0.0932
S. aureus DSM 20231	0.0382
S. aureus Newman	-0.019
S. pneumoniae D39V [2]	0.036

Settings	fitness
B. subtilis 168 [3], first compound 0.02 µg/mL, partner 1.25 µg/mL	0.905
B. subtilis 168 [3], first compound 0.02 µg/mL, partner 2.5 µg/mL	0.86
B. subtilis 168 [3], first compound 0.02 µg/mL, partner 5 µg/mL	0.885
B. subtilis 168 [3], first compound 0.04 µg/mL, partner 1.25 µg/mL	0.828
B. subtilis 168 [3], first compound 0.04 µg/mL, partner 2.5 µg/mL	0.839
B. subtilis 168 [3], first compound 0.04 µg/mL, partner 5 µg/mL	0.772
B. subtilis 168 [3], first compound 0.08 µg/mL, partner 1.25 µg/mL	0.568
S. pneumoniae D39V [4], first compound 0.0155 µg/mL, partner 1.5 µg/mL	0.979
S. pneumoniae D39V [4], first compound 0.0155 µg/mL, partner 3 µg/mL	0.975
S. pneumoniae D39V [4], first compound 0.0155 µg/mL, partner 6 µg/mL	0.978
S. pneumoniae D39V [4], first compound 0.031 µg/mL, partner 1.5 µg/mL	0.923
S. pneumoniae D39V [4], first compound 0.031 µg/mL, partner 3 µg/mL	0.877
S. pneumoniae D39V [4], first compound 0.031 µg/mL, partner 6 µg/mL	0.898
S. pneumoniae D39V [4], first compound 0.062 µg/mL, partner 1.5 µg/mL	0.845
S. pneumoniae D39V [4], first compound 0.062 µg/mL, partner 3 µg/mL	0.841
S. pneumoniae D39V [4], first compound 0.062 µg/mL, partner 6 µg/mL	0.806

fitness, S. pneumoniae D39V [4], one replicate
Settings	partner 1.5 µg/mL	partner 3 µg/mL	partner 6 µg/mL
first compound 0.003875 µg/mL	≥ 1	≥ 1	≥ 1
first compound 0.00775 µg/mL	≥ 1	0.962	0.986

C[C@H]1c2cccc(O)c2C(=O)C2=C(O)[C@]3(O)C(=O)C(C(N)=O)=C(O)[C@@H](N(C)C)[C@@H]3[C@@H](O)[C@@H]21 [Doxycycline] + Cc1onc(-c2ccccc2)c1C(=O)N[C@@H]1C(=O)N2[C@@H]1SC(C)(C)[C@@H]2C(=O)O [Oxacillin]
Settings	Bliss interaction score
B. subtilis 168 [1]	0.0493
S. aureus DSM 20231	0.0402
S. aureus Newman	-0.0136
S. pneumoniae D39V [2]	0.159

Settings	fitness
B. subtilis 168 [3], first compound 0.02 µg/mL, partner 0.002 µg/mL	0.885
B. subtilis 168 [3], first compound 0.02 µg/mL, partner 0.004 µg/mL	0.933
B. subtilis 168 [3], first compound 0.02 µg/mL, partner 0.008 µg/mL	0.882
B. subtilis 168 [3], first compound 0.04 µg/mL, partner 0.002 µg/mL	0.762
B. subtilis 168 [3], first compound 0.04 µg/mL, partner 0.004 µg/mL	0.771
B. subtilis 168 [3], first compound 0.04 µg/mL, partner 0.008 µg/mL	0.716
B. subtilis 168 [3], first compound 0.08 µg/mL, partner 0.002 µg/mL	0.419
B. subtilis 168 [3], first compound 0.08 µg/mL, partner 0.004 µg/mL	0.422
B. subtilis 168 [3], first compound 0.08 µg/mL, partner 0.008 µg/mL	0.372
S. pneumoniae D39V [4], first compound 0.0155 µg/mL, partner 0.01 µg/mL	0.957
S. pneumoniae D39V [4], first compound 0.0155 µg/mL, partner 0.02 µg/mL	0.921
S. pneumoniae D39V [4], first compound 0.031 µg/mL, partner 0.01 µg/mL	0.917
S. pneumoniae D39V [4], first compound 0.031 µg/mL, partner 0.02 µg/mL	0.885
S. pneumoniae D39V [4], first compound 0.062 µg/mL, partner 0.01 µg/mL	0.859
S. pneumoniae D39V [4], first compound 0.062 µg/mL, partner 0.02 µg/mL	0.801
S. pneumoniae D39V [4], first compound 0.062 µg/mL, partner 0.04 µg/mL	0.71

fitness, one replicate
Settings	partner 0.0078 µg/mL	partner 0.01 µg/mL	partner 0.0155 µg/mL	partner 0.02 µg/mL	partner 0.031 µg/mL	partner 0.04 µg/mL	partner 0.075 µg/mL	partner 0.15 µg/mL	partner 0.3 µg/mL
B. subtilis 168 [3], first compound 0.02 µg/mL	≥ 1	–	≥ 1	–	≥ 1	–	0.661	0.0438	0.0604
B. subtilis 168 [3], first compound 0.04 µg/mL	0.858	–	0.843	–	0.843	–	0.576	0.025	0.0223
B. subtilis 168 [3], first compound 0.08 µg/mL	0.721	–	0.742	–	0.716	–	0.102	0.0327	0.0213
S. pneumoniae D39V [4], first compound 0.003875 µg/mL	–	≥ 1	–	0.978	–	0.357	–	–	–
S. pneumoniae D39V [4], first compound 0.00775 µg/mL	–	≥ 1	–	0.959	–	0.571	–	–	–
